Reference: patent US5576187A (priority 1994, dated 1996)

Tested on: anti-chlorpyrifos monoclonal antibody
Format: binding, mouse

Structure (SMILES)	relative reactivity: concentration equivalent to 1 ppB of chlorpyrifos in the immunoassay [ppm]
Cn1c(Cl)c(Cl)cc(Cl)c1=O [N-methyl-3,5,6-trichloro-2-pyridinone]	75
CCOP(=O)(Cc1ccc(C)cc1)OCC [diethyl 4-methylbenzylphosphonate]	50
